In patent publication US8003660B2, “Modulators of muscarinic receptors” (Vertex Pharmaceuticals Incorporated, priority 2006, dated 2011):
pEC50: −log10 of the molar value. Read-outs that look alike come from different tables or passages of the source.

How the values were obtained:
Assay type in all cases: cell-based
M2 muscarinic receptor = molecular target: T1, M2 muscarinic receptor (Homo sapiens, UniProt P08172); test: Functional mobilization of intracellular calcium (FLIPR) in CHO cells expressing M2; conditions: for M2 Activity: CHO cells expressing M2, FLIPR calcium assay; for Emax: CHO; for pEC50: CHO cells expressing M2, FLIPR calcium
T1 construct: expressed in transfected cells; host or cells: CHO (M2-CHO)
T1 sequence (P08172 1-466): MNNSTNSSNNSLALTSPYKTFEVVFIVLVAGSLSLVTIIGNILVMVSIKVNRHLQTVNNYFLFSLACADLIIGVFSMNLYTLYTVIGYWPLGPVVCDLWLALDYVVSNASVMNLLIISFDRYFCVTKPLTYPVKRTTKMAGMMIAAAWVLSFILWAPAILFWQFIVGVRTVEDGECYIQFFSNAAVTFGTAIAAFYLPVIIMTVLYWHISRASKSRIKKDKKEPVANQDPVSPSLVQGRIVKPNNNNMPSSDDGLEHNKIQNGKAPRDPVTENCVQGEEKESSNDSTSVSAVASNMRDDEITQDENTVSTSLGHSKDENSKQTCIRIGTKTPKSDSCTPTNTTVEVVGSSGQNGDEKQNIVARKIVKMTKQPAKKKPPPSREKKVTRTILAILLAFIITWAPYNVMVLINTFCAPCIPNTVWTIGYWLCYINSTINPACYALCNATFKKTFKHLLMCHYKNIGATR
Procedure, shortened: (§1)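 Calcium flux is read on FLIPR over 60 sec at 488/540 nm in muscarinic-receptor CHO lines. Antagonist mode adds carbachol at EC80 after 15 min compound preincubation or with simultaneous co-application. Agonist mode adds compound alone. Cells carry Fluo-3 or Calcium 3 dye in probenecid-containing pH 7.4 buffer, 0.5% DMSO final.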

M4 muscarinic receptor = molecular target: T2, M4 muscarinic receptor (Homo sapiens, UniProt P08173); test: Functional mobilization of intracellular calcium (FLIPR) in CHO cells expressing M4; conditions: for M4 Activity: CHO cells expressing M4, FLIPR calcium assay; for Emax: CHO; for pEC50: CHO cells expressing M4, FLIPR calcium
T2 construct: expressed in transfected cells; host or cells: CHO (M4-CHO)
T2 sequence (P08173 1-479): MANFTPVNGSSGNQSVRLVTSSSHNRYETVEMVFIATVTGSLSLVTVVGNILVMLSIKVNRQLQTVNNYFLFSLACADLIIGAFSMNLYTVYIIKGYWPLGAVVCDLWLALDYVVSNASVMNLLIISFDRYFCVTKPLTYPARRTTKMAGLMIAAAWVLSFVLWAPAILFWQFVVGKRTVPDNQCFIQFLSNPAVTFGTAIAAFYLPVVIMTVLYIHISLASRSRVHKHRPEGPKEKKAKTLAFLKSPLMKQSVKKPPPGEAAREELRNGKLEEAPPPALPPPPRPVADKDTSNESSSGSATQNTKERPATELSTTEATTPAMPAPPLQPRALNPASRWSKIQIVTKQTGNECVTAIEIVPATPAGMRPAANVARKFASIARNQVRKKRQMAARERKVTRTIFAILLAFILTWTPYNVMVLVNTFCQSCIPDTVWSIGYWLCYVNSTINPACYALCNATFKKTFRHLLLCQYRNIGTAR
Procedure, shortened: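 Read-out: FLIPR fluorescence (ex 488, em 540 nm) over 60 s. Recombinant CHO lines are dye-loaded (Fluo-3 AM or Calcium 3) with 1 mM probenecid. For antagonist mode, compound is pre-incubated 15 min, or co-applied, then carbachol is added at 3× EC80 per subtype.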

M3 muscarinic receptor = molecular target: T3, M3 muscarinic receptor (Homo sapiens, UniProt P20309); test: Functional mobilization of intracellular calcium (FLIPR) in CHO cells expressing M3; conditions: for M3 Activity: CHO cells expressing M3, FLIPR calcium assay; for Emax: CHO; for pEC50: CHO cells expressing M3, FLIPR calcium
T3 construct: expressed in transfected cells; host or cells: CHO (M3-CHO)
Procedure, shortened: as §1

M1 muscarinic receptor = molecular target: T4, M1 muscarinic receptor (Homo sapiens, UniProt P11229); test: Functional mobilization of intracellular calcium (FLIPR) in CHO cells expressing M1; conditions: for M1 Activity: CHO cells expressing M1, FLIPR calcium assay; for Emax: CHO; for pEC50: CHO cells expressing M1, FLIPR calcium
T4 construct: expressed in transfected cells; host or cells: CHO (M1-CHO)
T4 sequence (P11229 1-460): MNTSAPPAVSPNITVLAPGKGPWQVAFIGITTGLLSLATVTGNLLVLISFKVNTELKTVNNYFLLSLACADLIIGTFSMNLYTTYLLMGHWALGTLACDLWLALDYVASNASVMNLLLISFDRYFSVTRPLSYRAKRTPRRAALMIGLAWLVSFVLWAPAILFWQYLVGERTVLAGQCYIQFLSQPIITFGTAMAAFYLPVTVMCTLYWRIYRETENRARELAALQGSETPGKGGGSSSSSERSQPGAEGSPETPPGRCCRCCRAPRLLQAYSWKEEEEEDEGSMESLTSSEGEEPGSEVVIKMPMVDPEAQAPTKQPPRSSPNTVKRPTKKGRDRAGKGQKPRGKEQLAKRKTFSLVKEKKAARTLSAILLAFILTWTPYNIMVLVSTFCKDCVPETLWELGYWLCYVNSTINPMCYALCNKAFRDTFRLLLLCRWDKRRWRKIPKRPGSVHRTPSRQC
Procedure, shortened: as §1

[1] = 100% efficacy = maximum response obtained with the Carbachol control
[2] = 100% = maximum response obtained with the Carbachol control, read-out: M2 Efficacy
[3] = 100% = maximum response obtained with the Carbachol control, read-out: M4 Efficacy
[4] = 100% = maximum response obtained with the Carbachol control, read-out: M3 Efficacy
[5] = 100% = maximum response obtained with the Carbachol control, read-out: M1 Efficacy

T3 sequence (P20309 whole entry): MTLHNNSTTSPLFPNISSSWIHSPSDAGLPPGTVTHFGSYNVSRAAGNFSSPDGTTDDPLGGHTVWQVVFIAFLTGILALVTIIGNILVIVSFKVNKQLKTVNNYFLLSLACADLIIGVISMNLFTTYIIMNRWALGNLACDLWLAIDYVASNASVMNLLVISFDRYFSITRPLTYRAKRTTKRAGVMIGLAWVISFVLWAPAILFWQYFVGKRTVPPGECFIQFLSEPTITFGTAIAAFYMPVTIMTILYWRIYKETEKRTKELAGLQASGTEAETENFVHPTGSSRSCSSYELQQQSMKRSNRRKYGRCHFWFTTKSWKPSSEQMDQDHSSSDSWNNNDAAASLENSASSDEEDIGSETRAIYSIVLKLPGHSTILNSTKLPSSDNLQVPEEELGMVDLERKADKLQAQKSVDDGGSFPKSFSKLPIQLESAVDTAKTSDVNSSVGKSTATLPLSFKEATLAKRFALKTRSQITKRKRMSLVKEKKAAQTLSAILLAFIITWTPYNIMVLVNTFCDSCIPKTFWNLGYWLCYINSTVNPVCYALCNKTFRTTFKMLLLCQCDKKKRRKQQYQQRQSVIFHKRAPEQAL

Compound	M2 Activity (M2 muscarinic receptor)	Emax (M2 muscarinic receptor; [1]) [%]	M4 Activity (M4 muscarinic receptor)	Emax (M4 muscarinic receptor; [1]) [%]	M3 Activity (M3 muscarinic receptor)	Emax (M3 muscarinic receptor; [1]) [%]	M1 Activity (M1 muscarinic receptor)	Emax (M1 muscarinic receptor; [1]) [%]	pEC50 (M2 muscarinic receptor)	Emax (M2 muscarinic receptor; [2]) [%]	pEC50 (M4 muscarinic receptor)	Emax (M4 muscarinic receptor; [3]) [%]	pEC50 (M3 muscarinic receptor)	Emax (M3 muscarinic receptor; [4]) [%]	pEC50 (M1 muscarinic receptor)	Emax (M1 muscarinic receptor; [5]) [%]
CC(C)(C)CCN1CCC2(CC1)C[C@H](NC(=O)c1ccoc1)c1ccccc12 [compound 292]	+ (activity was measured to be greater than 5.0 μM)	< 25	+ (activity was measured to be greater than 5.0 μM)	< 25	+ (activity was measured to be greater than 5.0 μM)	< 25	+ (activity was measured to be greater than 5.0 μM)	< 25	–	–	–	–	–	–	–	–
CC(C)(C)CCN1CCC2(CC1)C[C@H](NC(=O)N1CCCC1)c1ccccc12 [compound 251]	+ (activity was measured to be greater than 5.0 μM)	< 25	+ (activity was measured to be greater than 5.0 μM)	< 25	+ (activity was measured to be greater than 5.0 μM)	< 25	+ (activity was measured to be greater than 5.0 μM)	< 25	–	–	–	–	–	–	–	–
COC(=O)CCCN1CCC2(CC[C@H](NC(C)=O)c3ccccc32)CC1 [compound 16]	–	–	–	–	–	–	–	–	< 5.30	< 25	< 5.30	25 to 100	< 5.30	< 25	5.30 to 5.70	25 to 100
CCN(C(=O)CCOC)[C@H]1CCC2(CCN(CCC(C)(C)C)CC2)c2ccccc21 [compound 221]	+ (activity was measured to be greater than 5.0 μM)	< 25	+++ (activity was measured to be less than 2.0 μM)	25 to 100	+ (activity was measured to be greater than 5.0 μM)	< 25	++ (activity was measured to be from 2.0 μM to 5.0 μM)	25 to 100	–	–	–	–	–	–	–	–
Cn1cncc1C(=O)N[C@@H]1CCC2(CCN(CCC(C)(C)C)CC2)c2ccccc21 [compound 118]	–	–	–	–	–	–	–	–	< 5.30	< 25	> 5.70	25 to 100	< 5.30	< 25	5.30 to 5.70	25 to 100
CCN(C(=O)C(C)NC(C)=O)[C@H]1CCC2(CCN(CCC(C)(C)C)CC2)c2ccccc21 (stereo partly drawn) [compound 34]	–	–	–	–	–	–	–	–	5.30 to 5.70	< 25	> 5.70	25 to 100	< 5.30	< 25	> 5.70	25 to 100
CC(=O)N[C@H]1CC2(CCN(C(C)CC(C)C)CC2)c2ccccc21 (stereo partly drawn) [compound 236]	+ (activity was measured to be greater than 5.0 μM)	< 25	+ (activity was measured to be greater than 5.0 μM)	< 25	+ (activity was measured to be greater than 5.0 μM)	< 25	+ (activity was measured to be greater than 5.0 μM)	< 25	–	–	–	–	–	–	–	–
C[C@@H](O)CC(=O)N[C@H]1CCC2(CCN(CCC(C)(C)C)CC2)c2ccccc21 [compound 85]	–	–	–	–	–	–	–	–	> 5.70	25 to 100	> 5.70	25 to 100	< 5.30	< 25	> 5.70	25 to 100
CC[C@@H](C)CN1CCC2(CC[C@H](NC(C)=O)c3ccccc32)CC1 [compound 56]	–	–	–	–	–	–	–	–	> 5.70	25 to 100	> 5.70	25 to 100	< 5.30	< 25	> 5.70	25 to 100
